“Also recorded” adds a separate entry of the source.
Tests used:
[1] = test system: Arabidopsis thaliana Col-0 ecotype seeds; experiment: Seed germination, Col-0 ecotype; format: in vivo
Method: Take the compounds 0428 and 0224 of the present invention as examples. The seeds of Arabidopsis thaliana Col-0 ecotype and PYL receptor triple mutant (pyr1;pyl1;pyl4) were sterilized with NaClO and placed at 4° C. for 3 days of the vernalization, and then sown in ½ MS solid medium containing 1 μM (+)-ABA/0224 compound or 0.05% DMSO (control) or in ½ MS solid medium containing 2 μM (+)-ABA/compound 0428 of the present invention or 0.05% DMSO (control). Two lines of plant were sown simultaneously on each medium of 6 cm diameter, with 15-20 seeds sown for each line and 4 replicates for each compound. Culture medium was placed at 22° C. with long-day culture. The seeds germinated on a solid medium containing 1 μM (+)-ABA/0224 compound were photographed 6 days after sowing, and seeds germinated on solid medium containing 2 μM (+)-ABA/0428 compound were photographed 9 days after sowing.

corn = experiment: Soil drought experiment, corn; format: in vivo; conditions: 50 μM sprayed once a day for two days; 4 days of drought; FIG. 14b
Method: Soil drought experiments used for compound 0428 on soybean and maize were similar to that used for compound 0224 on soybeans, with only one plant contained in each pot. All soybean plants were long-day cultured at 26° C. Watering was stopped after the plant had three leaves in each of three groups and the plants with consistent growth were selected for drought treatment. As for corn, watering was stopped during the small bell-mouthed period for drought treatment. A solution containing 0.05% tween-20 and 50 μM (+)-0428 or 0.05% Tween-20 and 0.05% DMSO (control) was sprayed once on leaf surface on the first day and the second day of the drought, respectively, with a spray amount of 4 ml/pot. Meanwhile the pot position was also changed. The soybeans were re-watered 9 days after the drought, the corn was re-watered 4 days after the drought, and the photos were taken the next day.
In another group of experiments, soil drought experiments were performed on soybeans with three leaves in three groups or corn plants during the small trumpet period of the same size.

rice OsPYL2 protein = target: T1, rice OsPYL2 protein (Oryza sativa subsp. japonica, UniProt Q5Z8S0); experiment: AlphaScreen assay, rice OsPYL2 with Arabidopsis AtHAB1; format: biochemical; conditions: fraction of the EC50 of ABA; FIG. 13
T1 construct: made in house; host or cells: E. coli BL21 (DE3)
T1 sequence (Q5Z8S0 1-207): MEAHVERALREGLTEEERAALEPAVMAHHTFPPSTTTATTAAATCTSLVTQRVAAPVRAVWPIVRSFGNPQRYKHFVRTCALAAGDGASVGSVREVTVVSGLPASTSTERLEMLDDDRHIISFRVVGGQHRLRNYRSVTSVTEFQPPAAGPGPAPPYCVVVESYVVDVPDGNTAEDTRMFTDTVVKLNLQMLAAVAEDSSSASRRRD
T1 sequence (Q9CAJ0 172-511 partner limits assumed): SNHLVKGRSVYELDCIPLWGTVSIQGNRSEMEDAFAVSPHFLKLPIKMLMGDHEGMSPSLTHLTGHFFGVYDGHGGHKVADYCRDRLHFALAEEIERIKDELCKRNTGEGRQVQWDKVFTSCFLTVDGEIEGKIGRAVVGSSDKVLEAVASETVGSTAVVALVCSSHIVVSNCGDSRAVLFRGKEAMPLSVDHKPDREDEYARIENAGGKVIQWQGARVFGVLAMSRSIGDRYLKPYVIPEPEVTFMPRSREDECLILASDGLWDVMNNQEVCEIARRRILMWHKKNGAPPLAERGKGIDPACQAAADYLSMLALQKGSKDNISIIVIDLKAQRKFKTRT
Method: The AlphaScreen kit (available from Perkin Elmer) was used, and the method was as follows: a 10× buffer (50 mM MOPS, pH 7.4, 50 mM NaF, 50 mM CHAPS, 0.1 mg/ml bovine serum albumin) diluted at 1:10, each of 100 nM HAB1 with Biotin tag sequence and PYR1/PYL1/PYL2/PYL7/GmPYL6/OsPYL2 protein with dual tags of 6×His and SUMO sequences, corresponding concentrations of (+)-ABA/0224/0304/0706/0708/0713/0715/0428/NC0F4, and 5 μg/ml donor beads and acceptor beads (available from Perkin Elmer) were contained in 150 μl of experimental system. After incubating for 1.5 hours at room temperature in the dark, it was placed into an Envision Plate Reader (available from Perkin Elmer) under the programmed AlphaScreen procedure for readings.

Compound | inhibition of seed germination of Col-0 ([1]; 1 μM in 1/2 MS solid medium, 6 days after sowing, FIG. 3) | inhibition of seed germination of Col-0 ([1]; 2 μM in 1/2 MS solid medium, 9 days after sowing, FIG. 15) | growth after drought and re-watering (corn) | EC50 value for rice OsPYL2 as fraction of that of ABA (rice OsPYL2 protein)
CCCN1C(=O)OC(C)c2cc(NS(=O)(=O)Cc3c(F)c(F)c(C)c(F)c3F)ccc21 (stereo not shown) [Compound 0224] | can inhibit the seed germination of Col-0; also recorded: could inhibit the seed germination of Col-0 ecotype |  |  | 
CCCN1C(=O)OCc2cc(NS(=O)(=O)Cc3c(F)c(F)c(C)c(F)c3F)ccc21 [Compound 0428] |  | can inhibit the seed germination of the Col-0; also recorded: could inhibit the seed germination of Col-0 ecotype | significantly better growth after re-watering than that in the DMSO-sprayed control group | ⅓

— patent publication US11076597B2, “High stress resistant plant growth regulator and preparation method and use thereof” (SHANGHAI INSTITUTES FOR BIOLOGICAL SCIENCES, CHINESE …, priority 2015, dated 2021)
